Data on one molecule can be found in US6403648B2, “Alkylaminoalkyl-sulfonyl-terminated β-alanineamide amino-diol compounds for treatment of hypertension” (G. D. Searle & Co., priority 1993, dated 2002).

The target of this test is T1, human renin (Homo sapiens, UniProt P00797).
T1 construct: purchased National Institute for Biological Standards, London
T1 sequence (P00797 67-406): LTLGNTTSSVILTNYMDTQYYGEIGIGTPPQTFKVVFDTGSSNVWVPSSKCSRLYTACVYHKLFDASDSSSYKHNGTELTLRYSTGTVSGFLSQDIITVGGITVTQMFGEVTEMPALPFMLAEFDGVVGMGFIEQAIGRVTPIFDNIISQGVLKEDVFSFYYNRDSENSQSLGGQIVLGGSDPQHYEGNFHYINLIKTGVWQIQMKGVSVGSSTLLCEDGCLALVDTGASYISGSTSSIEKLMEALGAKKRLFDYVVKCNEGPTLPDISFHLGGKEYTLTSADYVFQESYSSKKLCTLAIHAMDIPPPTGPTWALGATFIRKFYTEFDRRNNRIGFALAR
As to the kind of experiment: Human renin inhibition in vitro. The conditions noted are these: human renin with human plasma as substrate, pH 7.4, 37° C., two hours; angiotensin I by radioimmunoassay; read-out: inhibit human renin in vitro, IC50. Format: biochemical. On the procedure: Compounds of Formula I were evaluated as inhibitors of human renin in an in vitro assay, as follows: This human renin inhibition test has been previously described in detail [Papaioannou et al., Clinical and Experimental Hypertension, A7(9), 1243-1257 (1985)]. Human renin was obtained from the National Institute for Biological Standards, London. An incubation mixture was prepared containing the following components: in a total volume of 0.25 mL: 100 mM Tris-acetate buffer at pH 7.4, 25×10^−6 Goldblatt units of renin, 0.05 mL of plasma from human volunteers taking oral contraceptives, 6.0 mM Na-EDTA, 2.4 mM phenylmethyl sulfonyl fluoride, 1.5 mM 8-hydroxyquinoline, 0.4 mg/mL bovine serum albumin (BSA), and 0.024 mg/mL neomycin sulfate. This mixture was incubated for two hours at 37° C. in the presence or absence of renin inhibitors. The produced angiotensin I was determined by radioimmunoassay (New England Nuclear kit). Test compounds to be assayed were dissolved in DMSO and diluted with 100 mM Tris-acetate buffer at pH 7.4 containing 0.5% BSA to the appropriate concentration. The final concentration of organic solvent in the reaction mixture was less than 1%. Control incubations at 37° C. were used to correct for effects of organic solvent on renin activity. The in vitro enzymatic conversion of angiotensinogen to angiotensin I was inhibited by test compounds of the invention.

`CC(C)C[C@H](O)[C@H](O)[C@H](CC1CCCCC1)NC(=O)[C@H](C)CNC(=O)C(Cc1ccccc1)CS(=O)(=O)CCN(C)C` (stereo partly shown) [Example 1]: the IC50 (in general, the concentration that inhibits the measured activity by half) came out at 44 nM.
